These compounds were tested on HCV 1b genotype (assay: HCV replicon assay (HCV-neo replicon cells, wild-type)). Conditions: HCV 1b genotype replicon; class symbol; read-out: EC50 Range against HCV 1b.
Assay type: cell-based, Hepatitis C virus
Outline: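 Inhibition was tested in replicon-bearing cells, both wild-type HCV-neo and lines with NS5A resistance substitutions, using the O'Boyle et al. 2005 replicon method or luciferase-reporter formats.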

SMILES | EC50
O=C(Nc1ccc(-c2cnc(-c3ccc(NC(=O)C4CC5CC5N4C(=O)C4CCCO4)cc3)o2)cc1)C1CC2CC2N1C(=O)C1CCCO1 [CB-7, (1S,3S,5S,1′S,3′S,5′S)-N,N′-(1,3-oxazole-2,5-diyldi-4,1-phenylene)bis(2-((2R)-tetrahydro-2-furanylcarbonyl)-2-azabicyclo[3.1.0]hexane-3-carboxamide)] | 100 to 999 nM
CC1(C)CC(C)(C(=O)N2CCC[C@H]2C(=O)Nc2ccc(-c3cnc(-c4ccc(NC(=O)[C@@H]5CCCN5C(=O)C5(C)CC(C)(C)C(=O)N5)cc4)o3)cc2)NC1=O (stereo partly drawn) [Example D-25, (2S,2′S)-N,N′-(4,4′-(oxazole-2,5-diyl)bis(4,1-phenylene))bis(1-(2,4,4-trimethyl-5-oxopyrrolidine-2-carbonyl)pyrrolidine-2-carboxamide)] | 1000 to 10000 nM
CC(C)(C)OC(=O)N1CCCC1C(=O)N1CCCC1C(=O)Nc1ccc(-c2cnc(-c3ccc(NC(=O)C4CCCN4C(=O)C4CCCN4C(=O)OC(C)(C)C)cc3)o2)cc1 [Example D-27, di-tert-butyl (2S,2′S)-2,2′-(1,3-oxazole-2,5-diylbis(4,1-phenylenecarbamoyl(2S)-2,1-pyrrolidinediylcarbonyl))di(1-pyrrolidinecarboxylate)] | 1000 to 10000 nM
CN(C)[C@@H](C(=O)N1[C@H](C(=O)Nc2ccc(-c3cnc(-c4ccc(NC(=O)[C@@H]5C[C@@H]6C[C@@H]6N5C(=O)[C@@H](c5ccccc5)N(C)C)cc4)o3)cc2)C[C@@H]2C[C@@H]21)c1ccccc1 [CB-9, (1S,3S,5S,1′S,3′S,5′S)-N,N′-(1,3-oxazole-2,5-diyldi-4,1-phenylene)bis(2-((2R)-2-(dimethylamino)-2-phenylacetyl)-2-azabicyclo[3.1.0]hexane-3-carboxamide)] | < 4.57 nM
C[C@H](NC(=O)[C@](C)(O)c1ccccc1)C(=O)Nc1ccc(-c2cnc(-c3ccc(NC(=O)[C@H](C)NC(=O)[C@](C)(O)c4ccccc4)cc3)o2)cc1 [OL-57] | 4.57 to 99 nM

Same assay, conditions: HCV 1b genotype replicon; class symbols; read-out: EC50 Range against HCV 1b

SMILES | EC50
O=C(Nc1ccc(-c2cnc(-c3ccc(NC(=O)[C@@H]4CCCN4C(=O)Cc4cnc[nH]4)cc3)o2)cc1)[C@@H]1CCCN1C(=O)Cc1c[nH]cn1 [XY-14, (2S)-1-(1H-imidazol-4-ylacetyl)-N-(4-(2-(4-((((2S)-1-(1H-imidazol-5-ylacetyl)-2-pyrrolidinyl)carbonyl)amino)phenyl)-1,3-oxazol-5-yl)phenyl)-2-pyrrolidinecarboxamide (non-preferred name)] | 1000 to 10000 nM
CN(C)[C@H](C(=O)N1CCC[C@H]1C(=O)Nc1ccc(-c2cnc(-c3ccc(NC(=O)[C@@H]4CCCN4C(=O)[C@H]([C@@H](O)c4ccsc4)N(C)C)cc3)o2)cc1)[C@@H](O)c1ccsc1 [JR-15, (S,S,2S)-N,N′-(4,4′-(oxazole-2,5-diyl)bis(4,1-phenylene))bis(1-((2S,3S)-2-(dimethylamino)-3-hydroxy-3-(thiophen-3-yl)propanoyl)pyrrolidine-2-carboxamide)] | 4.57 to 99 nM

Same assay, conditions: HCV 1b genotype replicon; read-out: EC50 1b

SMILES | EC50
CC1(C)CC(C)(C(=O)N2CCC[C@H]2C(=O)Nc2ccc(-c3cnc(-c4ccc(NC(=O)[C@@H]5CCCN5C(=O)C5(C)CC(C)(C)C(=O)N5)cc4)o3)cc2)NC1=O (stereo partly drawn) [Example D-25, (2S,2′S)-N,N′-(4,4′-(oxazole-2,5-diyl)bis(4,1-phenylene))bis(1-(2,4,4-trimethyl-5-oxopyrrolidine-2-carbonyl)pyrrolidine-2-carboxamide)] | 5330 nM

Same assay, conditions: Hepatitis C virus, HCV 1b genotype replicon; class symbol; read-out: EC50 Range against HCV 1b

SMILES | EC50
COc1ccccc1C(=O)N1CCC[C@H]1C(=O)Nc1ccc(-c2nnc(-c3ccc(NC(=O)[C@@H]4CCCN4C(=O)c4ccccc4OC)cc3)o2)cc1 [RK-6, (2S,2′S)-N,N′-(1,3,4-oxadiazole-2,5-diyldi-4,1-phenylene)bis(1-(2-methoxybenzoyl)-2-pyrrolidinecarboxamide)] | 100 to 999 nM
O=C(Nc1ccc(-c2nnc(-c3ccc(NC(=O)[C@@H]4CCCN4C(=O)c4nc(Cl)cc5ccccc45)cc3)o2)cc1)[C@@H]1CCCN1C(=O)c1nc(Cl)cc2ccccc12 [RK-18, (2S,2′S)-N,N′-(1,3,4-oxadiazole-2,5-diyldi-4,1-phenylene)bis(1-((3-chloro-1-isoquinolinyl)carbonyl)-2-pyrrolidinecarboxamide)] | 1000 to 10000 nM
CC(C)[C@@H](NC(=O)OCc1ccccc1)C(=O)Nc1ccc(-c2cnc(-c3ccc(NC(=O)[C@H](NC(=O)OCc4ccccc4)C(C)C)cc3)o2)cc1 [JG-5, dibenzyl (1,3-oxazole-2,5-diylbis(4,1-phenyleneimino((2R)-3-methyl-1-oxo-1,2-butanediyl)))biscarbamate] | 1000 to 10000 nM
O=C(Nc1ccc(-c2nnc(-c3ccc(NC(=O)[C@@H]4CCCN4C(=O)c4cc(Cl)ccn4)cc3)o2)cc1)[C@@H]1CCCN1C(=O)c1cc(Cl)ccn1 [RK-27, (2S,2′S)-N,N′-(1,3,4-oxadiazole-2,5-diyldi-4,1-phenylene)bis(1-((4-chloro-2-pyridinyl)carbonyl)-2-pyrrolidinecarboxamide)] | 100 to 999 nM
COc1cc(C(=O)N2CCC[C@H](C(=O)Nc3ccc(-c4nnc(-c5ccc(NC(=O)[C@H]6CCCN(C(=O)c7cc(OC)c8ccccc8n7)C6)cc5)o4)cc3)C2)nc2ccccc12 [RK-26, (3S,3′S)-N,N′-(1,3,4-oxadiazole-2,5-diyldi-4,1-phenylene)bis(1-((4-methoxy-2-quinolinyl)carbonyl)-3-piperidinecarboxamide)] | 1000 to 10000 nM
COc1cccc(C(=O)N2CCC[C@H]2C(=O)Nc2ccc(-c3nnc(-c4ccc(NC(=O)[C@@H]5CCCN5C(=O)c5cccc(OC)c5)cc4)o3)cc2)c1 [RK-7, (2S,2′S)-N,N′-(1,3,4-oxadiazole-2,5-diyldi-4,1-phenylene)bis(1-(3-methoxybenzoyl)-2-pyrrolidinecarboxamide)] | 100 to 999 nM
CC(=O)N1CC=C[C@H]1C(=O)Nc1ccc(-c2cc(-c3ccc(NC(=O)[C@@H]4C=CCN4C(C)=O)cc3)[nH]n2)cc1 [OL-30, (2S,2′S)-N,N′-(1H-pyrazole-3,5-diyldi-4,1-phenylene)bis(1-acetyl-2,5-dihydro-1H-pyrrole-2-carboxamide)] | 1000 to 10000 nM
CO[C@H]1C[C@@H](C(=O)Nc2ccc(-c3cnc(-c4ccc(NC(=O)[C@@H]5C[C@H](OC)CN5C(=O)[C@H](O)c5ccccc5)cc4)o3)cc2)N(C(=O)[C@H](O)c2ccccc2)C1 [OL-58, (2S,4S,2′S,4′S)-N,N′-(1,3-oxazole-2,5-diyldi-4,1-phenylene)bis(1-((2R)-2-hydroxy-2-phenylacetyl)-4-methoxy-2-pyrrolidinecarboxamide)] | < 4.57 nM
C[C@](O)(C(=O)N1CCC[C@H]1C(=O)Nc1ccc(-c2nc[nH]c2-c2ccc(NC(=O)[C@@H]3CCCN3C(=O)[C@](C)(O)c3ccccc3)cc2)cc1)c1ccccc1 [JG-47, (2S,2′S)-N,N′-(1H-imidazole-4,5-diyldi-4,1-phenylene)bis(1-((2R)-2-hydroxy-2-phenylpropanoyl)-2-pyrrolidinecarboxamide)] | 4.57 to 99 nM
COC(C(=O)N1CCC[C@H]1C(=O)Nc1ccc(-c2nnc(-c3ccc(NC(=O)[C@@H]4CCCN4C(=O)C(OC)c4ccccc4)cc3)o2)cc1)c1ccccc1 (stereo partly drawn) [RK-11, (2S,2′S)-N,N′-(1,3,4-oxadiazole-2,5-diyldi-4,1-phenylene)bis(1-(methoxy(phenyl)acetyl)-2-pyrrolidinecarboxamide)] | 100 to 999 nM
C[C@@](O)(C(=O)N1CC[C@@H](NC(=O)Nc2ccc(-c3cnc(-c4ccc(NC(=O)N[C@@H]5CCN(C(=O)[C@@](C)(O)c6ccccc6)C5)cc4)o3)cc2)C1)c1ccccc1 [FY-7, N′,N′″-(1,3-oxazole-2,5-diyldi-4,1-phenylene)bis(1-((3R)-1-(2-hydroxy-2-phenylpropanoyl)-3-pyrrolidinyl)urea)] | 100 to 999 nM
CC(=O)N1CCC[C@H]1C(=O)Nc1ccc(-c2cnc(-c3ccc(NC(=O)C4CCN(C(=O)OCc5ccccc5)C4)cc3)o2)cc1 (stereo partly drawn) [MS-4, benzyl 3-((4-(5-(4-((1-acetyl-L-prolyl)amino)phenyl)-1,3-oxazol-2-yl)phenyl)carbamoyl)-1-pyrrolidinecarboxylate] | 100 to 999 nM
CC(=O)N1CCC[C@H]1C(=O)Nc1ccc(-c2nc(-c3ccc(NC(=O)[C@@H]4C=CCN4C(=O)Cc4ccccc4)cc3)cs2)cc1 [Example D-49, (2S)-N-[4-[2-[4-[[[(2S)-1-acetyl-2-pyrrolidinyl]carbonyl]amino]phenyl]-4-thiazolyl]phenyl]-2,5-dihydro-1-(phenylacetyl)-1H-pyrrole-2-carboxamide] | 1000 to 10000 nM
O=C(Nc1ccc(-c2nc[nH]c2-c2ccc(NC(=O)[C@@H]3CCCN3C(=O)Cc3ccccc3)cc2)cc1)[C@@H]1CCCN1C(=O)Cc1ccccc1 [OL-10, (2S,2′S)-N,N′-(1H-imidazole-4,5-diyldi-4,1-phenylene)bis(1-(phenylacetyl)-2-pyrrolidinecarboxamide)] | 4.57 to 99 nM
O=C(Nc1ccc(-c2cc(-c3ccc(NC(=O)[C@@H]4CCCN4C(=O)C4CC4)cc3)[nH]n2)cc1)[C@@H]1CCCN1C(=O)C1CC1 [OL-35, (2S,2′S)-N,N′-(1H-pyrazole-3,5-diyldi-4,1-phenylene)bis(1-(cyclopropylcarbonyl)-2-pyrrolidinecarboxamide)] | 1000 to 10000 nM

Same assay, conditions: Hepatitis C virus, HCV 1b genotype replicon; class symbols; read-out: EC50 Range against HCV 1b

SMILES | EC50
COc1cccc(CC(=O)N2C[C@H](OC(C)(C)C)C[C@H]2C(=O)Nc2ccc(-c3cnc(-c4ccc(NC(=O)[C@@H]5C[C@@H](OC(C)(C)C)CN5C(=O)Cc5cccc(OC)c5)cc4)o3)cc2)c1 [XY-77, (2S,4R,2′S,4′R)-N,N′-(1,3-oxazole-2,5-diyldi-4,1-phenylene)bis(4-tert-butoxy-1-((3-methoxyphenyl)acetyl)-2-pyrrolidinecarboxamide)] | 100 to 999 nM
Cn1cc(C(=O)N2CCC[C@H]2C(=O)Nc2ccc(-c3nnc(-c4ccc(NC(=O)[C@@H]5CCCN5C(=O)c5cn(C)c6ccccc56)cc4)o3)cc2)c2ccccc21 [RK-42, (2S,2′S)-N,N′-(1,3,4-oxadiazole-2,5-diyldi-4,1-phenylene)bis(1-((1-methyl-1H-indol-3-yl)carbonyl)-2-pyrrolidinecarboxamide)] | 1000 to 10000 nM
O=C(Nc1ccc(-c2cnc(-c3ccc(NC(=O)[C@@H]4CCCN4C(=O)CC4CC4)cc3)o2)cc1)[C@@H]1CCCN1C(=O)CC1CC1 [XY-24, (2S,2′S)-N,N′-(1,3-oxazole-2,5-diyldi-4,1-phenylene)bis(1-(cyclopropylacetyl)-2-pyrrolidinecarboxamide)] | 100 to 999 nM

Same assay, conditions: Hepatitis C virus, HCV 1b genotype replicon; read-out: EC50 1b

SMILES | EC50
CC(C)[C@@H](NC(=O)OCc1ccccc1)C(=O)Nc1ccc(-c2cnc(-c3ccc(NC(=O)[C@H](NC(=O)OCc4ccccc4)C(C)C)cc3)o2)cc1 [JG-5, dibenzyl (1,3-oxazole-2,5-diylbis(4,1-phenyleneimino((2R)-3-methyl-1-oxo-1,2-butanediyl)))biscarbamate] | 10000 nM
CC(=O)N1CCC[C@H]1C(=O)Nc1ccc(-c2cnc(-c3ccc(NC(=O)C4CCN(C(=O)OCc5ccccc5)C4)cc3)o2)cc1 (stereo partly drawn) [MS-4, benzyl 3-((4-(5-(4-((1-acetyl-L-prolyl)amino)phenyl)-1,3-oxazol-2-yl)phenyl)carbamoyl)-1-pyrrolidinecarboxylate] | 901 nM
O=C(Nc1ccc(-c2cc(-c3ccc(NC(=O)[C@@H]4CCCN4C(=O)C4CC4)cc3)[nH]n2)cc1)[C@@H]1CCCN1C(=O)C1CC1 [OL-35, (2S,2′S)-N,N′-(1H-pyrazole-3,5-diyldi-4,1-phenylene)bis(1-(cyclopropylcarbonyl)-2-pyrrolidinecarboxamide)] | 8250 nM

Source: patent publication US8735398B2 (Bristol-Myers Squibb Company, priority 2009, dated 2014)
